The source of these data is paper PMC11834790, “Pyridine indole hybrids as novel potent CYP17A1 inhibitors” (Journal of Enzyme Inhibition and Medicinal Chemistry, 2025).

The target in data set [1] is T1, CYP17A1 (Homo sapiens, UniProt P05093).
T1 construct: immortalised human adrenal cells expressing CYP17A1 and other steroidogenic enzymes; endogenous in cells; host or cells: NCI-H295R (human adrenal cells)
T1 sequence (P05093 1-508): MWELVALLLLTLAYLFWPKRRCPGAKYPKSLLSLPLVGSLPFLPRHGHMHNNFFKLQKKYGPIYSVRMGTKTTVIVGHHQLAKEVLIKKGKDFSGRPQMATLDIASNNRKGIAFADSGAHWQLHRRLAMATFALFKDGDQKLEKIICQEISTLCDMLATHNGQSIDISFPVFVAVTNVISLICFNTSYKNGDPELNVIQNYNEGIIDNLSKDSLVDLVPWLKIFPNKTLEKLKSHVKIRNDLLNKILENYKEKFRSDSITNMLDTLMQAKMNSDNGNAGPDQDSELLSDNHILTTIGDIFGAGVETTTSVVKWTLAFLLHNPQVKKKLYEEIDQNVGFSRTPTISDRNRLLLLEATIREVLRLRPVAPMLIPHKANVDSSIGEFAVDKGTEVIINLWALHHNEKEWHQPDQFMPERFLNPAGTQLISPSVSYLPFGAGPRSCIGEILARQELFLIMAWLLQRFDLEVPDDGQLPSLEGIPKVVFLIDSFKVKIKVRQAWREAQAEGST
Description: CYP17A1 activity calculated as ratios of steroid products to substrates (LC-MS). The class given is cell-based. The conditions noted are these: normalised to DMSO-treated cells (100%), NCI-H295R. The method, then: (§1) Steroid quantification was performed using Liquid Chromatography–Mass Spectrometry (LC-MS), following established protocols to study effect of compounds on adrenal steroidogenesis. Human adrenal NCI-H295R cells were seeded in 12-well plates at 500 000 cells per well and treated with fresh growth medium containing the test compounds for 4 h. Subsequently, 1 µM pregnenolone was added and incubated for an additional 4 h. Steroids were extracted from 500 µL aliquots of cell media, separated, and quantified according to the referenced methodology.
To provide deeper insights into CYP17A1 inhibition, the enzyme activity was calculated using ratios of steroid products to substrates, focusing on dual activities of CYP17A1 (Figure 4(B)).

Data set [2] has as its system VCaP cells. The data set is described as follows: Alamar blue (resazurin) cell viability, VCaP. The class given is cell-based, human. The method, then: (§2) LNCaP and RWPE-1 cells were plated in 96-well plates at 10 000 cells per well and incubated overnight at 37 °C with 5% CO2. VCaP cells were plated at 12 000 cells per well under the same conditions. After 24 h, the medium was replaced with fresh medium containing the compounds or abiraterone at a final concentration of 10 µM. Cells were incubated for an additional 24 and 48 h. Cell viability was measured using the Alamar Blue assay. Post-incubation, 0.05 mg/mL Alamar Blue solution in phosphate-buffered saline (PBS) was added to each well. The plates were incubated in the dark at 37 °C for 4 h, and fluorescence was measured at an excitation wavelength of 550 nm and an emission wavelength of 590 nm. Cell viability was calculated relative to control sample treated with DMSO. All experiments were conducted in triplicate.

For data set [3], the system named is LNCaP cells. Description: Alamar blue (resazurin) cell viability, LNCaP. The class given is cell-based, human. The following applies: 10 µM, 24 and 48 h. The method, then:
as §2
A general note: The colour change of resazurin is a common sign of viable cells or microbes.

The target in data set [4] is T1, CYP17A1. The data set is described as follows: CYP17A1 17,20-lyase activity assay in NCI-H295R cells (tritiated water release). The class given is cell-based. The conditions noted are these: dose-response, read-out: IC50, inhibition of 17,20-lyase activity.
For data set [5], the target named is T1, CYP17A1. Described as above. The class given is cell-based. The following applies: 4 h, DMSO = 100, read-out: CYP17A1 Lyase activity, Mean (percentage of activity remaining relative to the control). The method, then: (§3) Human adrenal NCI-H295R cells are an established model for assay of CYP17A1 activities. The NCI-H295R cells were seeded in 12-well plates at 500 000 cells per well and incubated overnight. On the following day, 10 µM of test compounds were added to the wells with fresh medium and incubated for 4 h. Abiraterone was used as a reference, and DMSO was included as a control. For assessing CYP17A1 hydroxylase activity, cells were treated with [^14C]-Progesterone at 10 000 cpm/1 µM per well. Trilostane was added prior to the test compounds and substrate to inhibit 3β-hydroxysteroid dehydrogenase activity so that a clean assay of only CYP17A1 activity could be performed[20]^,[27]^,[28]. Radiolabeled steroids were extracted from the media using a mixture of ethyl acetate and isooctane (1:1 v/v) and separated by Thin Layer Chromatography (TLC) on silica gel-coated aluminium plates (Supelco® Analytics, Sigma-Aldrich Chemie GmbH, Taufkirchen, Germany). TLC spots were visualised on a phosphor screen and detected by autoradiography using a Typhoon™ FLA-7000 PhosphorImager (GE Healthcare, Uppsala, Sweden). Radioactivity was quantified with ImageQuant™ TL analysis software (GE Healthcare Europe GmbH, Freiburg, Germany), and enzyme activity was expressed as the percentage of radioactivity incorporated into the product relative to the total radioactivity. For CYP17A1 lyase activity, cells were exposed to 50 000 cpm/1 µM [21-^3H]-17α-hydroxypregnenolone per well under similar conditions. The tritiated water release assay was used to measure the conversion of 17OH-Pregnenolone to DHEA. Steroids in the media were precipitated using a 5% activated charcoal/0.5% dextran solution. Enzyme activity was evaluated based on the water-soluble tritiated by-product formed in equimolar amounts with DHEA, with radioactivity in the aqueous phase quantified by liquid scintillation counting (MicroBeta2® Plate Counter, PerkinElmer Inc., Waltham, MA, USA). Percent inhibition was calculated relative to control samples.

The target of data set [6] is T1, CYP17A1. Description: CYP17A1 17α-hydroxylase activity assay in NCI-H295R cells ([14C]-progesterone, TLC). The class given is cell-based. The following applies: 4 h, DMSO = 100, read-out: CYP17A1 Hydroxylase activity, Mean (percentage of activity remaining relative to the control). The method, then: as §3
For data set [7], the system named is DU-145 cells. Description: Scratch (wound healing) assay. The class given is cell-based, human. The conditions noted are these: DU-145, 10 µM; for Wound area, Mean (area remaining open): 24 h, DMSO 170.5; for Effect on cell migration (in words): after 24 h. The method, then:
Human prostate cancer DU-145 cells show strong cell proliferation and therefore, are an established model for assay of antiproliferative effects of test compounds. DU-145 cells were plated in 24-well plates at 50 000 cells per well and grown until they reached 85% confluence. To inhibit cell proliferation, cells were treated with 5 µg/mL mitomycin for 2 h. A wound was created using a 10 µL pipette tip. The cells were then exposed to drugs at a concentration of 10 µM, while control wells received DMSO. Wound closure was observed and photographed using an optical microscope after 24 h. Images were analysed using ImageJ software (version 1.54j).

Data set [8] relates to adrenal steroidogenesis in NCI-H295R cells. The data set is described as follows: Steroid profiling by LC-MS in NCI-H295R cells. The class given is cell-based, human. The following applies: for Androsterone, Mean / Testosterone, Mean / Progesterone, Mean / Androstendione, Mean / 17a-Hydroxyprogesterone, Mean / DHEA, Mean / 11-Deoxycortisol, Mean / 11-Deoxycorticosterone, Mean / Pregnenolone, Mean / Cortisone, Mean / DHEA-S, Mean / Dihydrotestosterone, Mean: compounds at 10 µM; for Androsterone, Mean / Testosterone, Mean / Progesterone, Mean / Androstendione, Mean / 17a-Hydroxyprogesterone, Mean / DHEA, Mean / 11-Deoxycortisol, Mean / 11-Deoxycorticosterone, Mean / Pregnenolone, Mean: 1 µM pregnenolone; for Androsterone, Mean / Cortisone, Mean / DHEA-S, Mean / Dihydrotestosterone, Mean: DMSO 0; for Testosterone, Mean: DMSO 0.4785; for Progesterone, Mean: DMSO 4.814; for Androstendione, Mean: DMSO 7.577; for 17a-Hydroxyprogesterone, Mean: DMSO 9.967; for DHEA, Mean: DMSO 15.119; for 11-Deoxycortisol, Mean: DMSO 26.594; for 11-Deoxycorticosterone, Mean: DMSO 28.1555; for Pregnenolone, Mean: DMSO 2043.56; for Cortisone, Mean / DHEA-S, Mean / Dihydrotestosterone, Mean: not detected within the experimental timeframe. The method, then: as §1

Data set [9] is described as follows: Alamar blue (resazurin) cell viability, RWPE-1. The following applies: human, RWPE-1 cells, 48 h, of the control. The class given is cell-based. The method, then:
as §2

SMILES strings stand for the structures. Several values for one entry are separate records, joined by “and”; a condition that tells them apart may be missing. Equal values may be shown once.

As a reminder, the viability is a read-out of living cells in per cent, often relative to untreated cells. Higher therefore signals better survival. For orientation: IC50 means the midpoint of a concentration-inhibition curve. By remaining activity is commonly meant what remains of the control signal, in per cent.

`N#Cc1c(-c2ccncc2)cc(-c2ccc3[nH]ccc3c2)nc1N` [Compound 5, 2-Amino-6-(1H-indol-5-yl)-[4,4′-bipyridine]-3-carbonitrile]: the “17α-Hydroxylase activity (ratios of steroid products to substrates)” value in data set [1] is given as 1.7%. The viability at 10 µM in data set [2] (Homo sapiens, VCaP, 24 h) is under 50%. Moreover, the “Cytotoxic effect on LNCaP cells (in words)” value in data set [3] was “marked reduction in viability”. For the same compound, the IC50 in data set [4] came to 25 nM. In addition, the remaining activity at 10 µM in data set [5] turned out to be 39.7%. Further, the remaining activity at 10 µM in data set [6] is 20%. Besides, in [7], the “Wound area, Mean (area remaining open)” value worked out at 1916 Pixels^2 and the “Effect on cell migration (in words)” value is “less pronounced effect comparable to that exerted by abiraterone”. Further, in data set [8], the “Androsterone, Mean” value was 0.009 nmol/L; the “Testosterone, Mean” value was 0.5215 nmol/L; the “Progesterone, Mean” value turned out to be 39.9815 nmol/L; the “Androstendione, Mean” value stood at 1.4095 nmol/L. In [8], the “17a-Hydroxyprogesterone, Mean” value worked out at 1.3865 nmol/L; the “DHEA, Mean” value was found to be 0.748 nmol/L; the “11-Deoxycortisol, Mean” value turned out to be 4.0415 nmol/L; the “11-Deoxycorticosterone, Mean” value was 5.503 nmol/L. For the same compound, in [8], the “Pregnenolone, Mean” value was found to be 2578.994 nmol/L; the “Cortisone, Mean” value is 0 nmol/L; the “DHEA-S, Mean” value came out at 0 nmol/L; the “Dihydrotestosterone, Mean” value is recorded as 0 nmol/L.

On to `N#Cc1c(-c2ccncc2)cc(-c2ccc3[nH]ccc3c2)c(C#N)c1N` [Compound 11, 2-Amino-4-(1H-indol-5-yl)-6-(pyridin-4-yl)isophthalonitrile], for which, in data set [1], the “17α-Hydroxylase activity (ratios of steroid products to substrates)” value is 1%. In addition, the “Cytotoxic effect on VCaP cells (in words)” value in data set [2] (10 µM, 24 and 48 h) is on record as “did not exhibit high cytotoxic effects”. Moreover, in [3], the “Cytotoxic effect on LNCaP cells (in words)” value is recorded as “did not exhibit high cytotoxic effects”. Also, in data set [4], the IC50 was found to be 4 nM. Also, the remaining activity at 10 µM in [5] is 49.2%. Moreover, in data set [6], the remaining activity at 10 µM is 10%. For the same compound, in [7], the “Wound area, Mean (area remaining open)” value was found to be 8703 Pixels^2 and the “Effect on cell migration (in words)” value is recorded as “significant inhibition of cell migration”. For the same compound, in [8], the “Androsterone, Mean” value amounted to 1.176 nmol/L; the “Testosterone, Mean” value amounted to 0.4775 nmol/L; the “Progesterone, Mean” value is recorded as 67.3265 nmol/L; the “Androstendione, Mean” value is on record as 1.3725 nmol/L. In data set [8], the “17a-Hydroxyprogesterone, Mean” value was found to be 1.3575 nmol/L; the “DHEA, Mean” value was 1.36 nmol/L and 1.3585 nmol/L; the “11-Deoxycortisol, Mean” value is given as 3.942 nmol/L; the “11-Deoxycorticosterone, Mean” value is recorded as 3.8565 nmol/L. For the same compound, in data set [8], the “Pregnenolone, Mean” value came to 2465.505 nmol/L; the “Cortisone, Mean” value came out at 0 nmol/L; the “DHEA-S, Mean” value came to 0 nmol/L; the “Dihydrotestosterone, Mean” value worked out at 0 nmol/L. In addition, the “Reduction of DHEA level” value in [8] (vs DMSO control) was 11 fold.

For `c1cncc(-c2cccc(-c3ccc4[nH]ccc4c3)c2)c1` [Compound 12, 5-(3-(Pyridin-3-yl)phenyl)-1H-indole], the viability at 48 h, 10 µM in data set [9] was found to be 85%. For the same compound, the remaining activity at 10 µM was 48.7% in data set [5] and 46% in [6].
